Laboratory results: patent publication US20040097408A1, “Compounds regulating cell proliferation and differentiation” (priority 2001, published 2004)

Legend:
A6 cells = assay: effect of FCCP and valinomycin on F16 accumulation in mitochondria; format: cell-based, mouse; conditions: F16 3 μM
Description: In order to test the contribution of the mitochondrial membrane potential (ΔΨm) to the accumulation of F16 in mitochondria, the effect of FCCP, an uncoupler of mitochondrial respiration, and the effect of valinomycin, a potassium ionosphore, were tested.
The effect of the protonophore FCCP on F16 accumulation was performed as previously done for the colocalization experiments described above. EpH4-A6 cells preincubated with F16 (3 μM) were subsequently treated with 5 μM FCCP. Images were acquired immediately before, 1 min and 5 min after FCCP addition and visulized under 40× magnification.

[1] = system: EpH4-A6, FKBR3, MDA-MD-468 and MCF-7 cells; assay: cytoblot of QR on transformed cells; format: cell-based
Text: (§1) The compound was included in cytoblot experiments, as described above, on the following cells: EpH4-A6 and control EpH4-EV cells and the following human breast cancer cell lines: FKBR3 (Neu positive cells); MDA-MD-468 (which over-express EGFR); and MCF-7 (which over-express Her3/ErbB3; EGFR and Neu).

[2] = system: mitochondria of cancer cells; assay: accumulation of QR in mitochondria; format: cell-based
control EpH4-EV cells = assay: cytoblot of QR on normal cells; format: cell-based, mouse
Text: as §1

Question: For `CC(C)[C@@H]1NC(=O)[C@H](C)OC(=O)[C@@H](C(C)C)NC(=O)[C@@H](C(C)C)OC(=O)[C@H](C(C)C)NC(=O)[C@H](C)OC(=O)[C@@H](C(C)C)NC(=O)[C@@H](C(C)C)OC(=O)[C@H](C(C)C)NC(=O)[C@H](C)OC(=O)[C@@H](C(C)C)NC(=O)[C@@H](C(C)C)OC1=O` [valinomycin], which “effect of preincubation on F16 entry and accumulation in mitochondria” value (A6 cells) is on record?
Answer: retarded the entry and greatly reduced the overall accumulation of F16 inside mitochondria

Question: `N#CC(C#N)=NNc1ccc(OC(F)(F)F)cc1` [FCCP] was tested. Which “effect of preincubation on F16 entry and accumulation in mitochondria” value (A6 cells) did it give?
Answer: retarded the entry and greatly reduced the overall accumulation of F16 inside mitochondria

Question: How did the “proliferation of transformed cells at 10 nM” value ([1]; 10 nM) turn out when `CC[n+]1c(/C=C/c2ccc(N(C)C)cc2)ccc2ccccc21` [QR, Quinaldine Red] was run?
Answer: partially inhibited

Question: And the “proliferation of transformed cells at 100 nM” value ([1]; 100 nM)?
Answer: essentially completely inhibited

Question: And the “concentration inhibiting proliferation of transformed cells (as low as)” value ([1]; all of the transformed cells tested)?
Answer: 10 nM

Question: And the accumulation in mitochondria [2]?
Answer: accumulate in mitochondria of cancer cells and essentially not in mitochondria of normal cells

Question: And the “concentration inhibiting normal cells” value (control EpH4-EV cells)?
Answer: ≥ 10 µM
